In the supplement of paper PMC10307832:

What was measured:
Assay in all cases: relative viability (nuclei count vs DMSO), 5 days (fraction); higher = more cells survive
[1] = compound: Cc1nc(C(=O)NCC(=O)O)c(O)c2ccc(Oc3ccccc3)cc12 [FG-4592] + C[C@@H](Oc1cc(-c2cnn(C3CCNCC3)c2)cnc1N)c1c(Cl)ccc(F)c1Cl [Crizotinib] (partner 1 µM)
Procedure, shortened: (§1)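 Values are medians from duplicate plates. Each reflects relative viability, defined as the nuclei count of treated wells over that of vehicle wells. Lung cancer cell lines in 1536-well plates were pin-tool dosed one day after seeding with one drug alone or with a fixed anchor-drug dose plus five library-drug doses (not always all listed) in √10 steps, then fixed, stained and imaged at 4× after 5 days.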

[2] = compound: CC1=CC(=C(N1C2=CC=C(C=C2)Cl)C)C(=O)CN3CCCCC3 [IU1-47] + CCNC(=O)c1noc(-c2cc(C(C)C)c(O)cc2O)c1-c1ccc(CN2CCOCC2)cc1 [Luminespib] (partner 0.01 µM)
Procedure, shortened: as §1

[3] = compound: CC1=CC(=C(N1C2=CC=C(C=C2)Cl)C)C(=O)CN3CCCCC3 [IU1-47] + CC(C)C[C@H](NC(=O)[C@H](Cc1ccccc1)NC(=O)c1cnccn1)B(O)O [Bortezomib] (partner 0.002 µM)
Procedure, shortened: as §1

[4] = compound: CC1=CC(=C(N1C2=CC=C(C=C2)Cl)C)C(=O)CN3CCCCC3 [IU1-47] + O=C(c1cc(Cc2n[nH]c(=O)c3ccccc23)ccc1F)N1CCN(C(=O)C2CC2)CC1 [Olaparib] (partner 8 µM)
Procedure, shortened: as §1

UMC-11
relative viability ([1]; first compound 0.08 µM): 0.546
relative viability ([1]; first compound 0.253 µM): 0.644
relative viability ([1]; first compound 0.8 µM): 0.582
relative viability ([1]; first compound 2.53 µM): 0.642
relative viability ([1]; first compound 8 µM): 0.536
relative viability ([2]; first compound 0.08 µM): 1.08
relative viability ([2]; first compound 0.253 µM): 0.974
relative viability ([2]; first compound 0.8 µM): 1.09
relative viability ([2]; first compound 2.53 µM): 1.06
relative viability ([2]; first compound 8 µM): 0.938
relative viability ([3]; first compound 0.08 µM): 0.653
relative viability ([3]; first compound 0.253 µM): 0.618
relative viability ([3]; first compound 0.8 µM): 0.673
relative viability ([3]; first compound 2.53 µM): 1.04
relative viability ([3]; first compound 8 µM): 0.575
relative viability ([4]; first compound 0.08 µM): 0.402
relative viability ([4]; first compound 0.253 µM): 0.429
relative viability ([4]; first compound 0.8 µM): 0.368
relative viability ([4]; first compound 2.53 µM): 0.328
relative viability ([4]; first compound 8 µM): 0.373
